Data set [1] is described as follows: Brain to plasma ratio, 4ET-01-021 at 3.0 mg/kg PO. In kind it is in vivo, male CD-1 mouse. To be noted: for concentration at 2 h: oral, 3 mg/kg.
A further data set deals with IL-6 evoked grimace. Put plainly: IL-6 evoked grimace test. It is filed as in vivo, ICR mice. The procedure: Institute for Cancer Research (ICR) mice were used in these experiments. Mice were bred in house at University of Texas at Dallas and used at between 12 and 24 weeks of age. Mice were habituated to plexiglass boxes of approximately 4×6 inches in size with openable tops. Habituation took place over 2 days with animals exposed to the boxes for at least 30 min. A blinded observer scored baseline grimacing using the method previously described by Mogil and colleagues (Langford, et al., Coding of facial expressions of pain in the laboratory mouse. Nat Methods (2010) 7:447-449.). On test day, mice were given test compounds 1 hr prior to injection of interleukin 6 (human recombinant IL-6, R&D Systems) which was given at a dose of 0.1 ng in saline via an intraplantar injection as described previously (Moy et al. The MNK-eIF4E Signaling Axis Contributes to Injury-Induced Nociceptive Plasticity and the Development of Chronic Pain. J Neurosci (2017) 37:7481-7499.). Test compounds were given orally (PO) via a flexible oral gavage canula built for mice. 4ET-01-021 (10.0, 3.0, and 1.0 mg/kg) and 4ET-03-052B (10.0 mg/kg) are efficacious in the IL-6 evoked grimace test in mice. FIG. 5 depicts a comparison of effect size in the IL-6 evoked grimace test. Effect sizes were calculated per mouse by subtracting the baseline grimace score from the sum of the grimace scores for 1 and 3 hr time points. […] FIG. 6 is a graph showing the effect size in the IL-6 evoked grimace test vs. dose of 4ET-01-021.

Each structure is given as a SMILES string. Values joined by “and” are separate entries in the source; they are usually repeats but may differ in a detail not shown here. Equal entries are not always repeated. Where two headings read alike, the source gives them in different places.

Usually ED50 stands for the dose that gives a 50% effect, or the effect in half of the subjects. Low values mean greater potency, high ones weaker potency.

Regarding `CCC1=CC2(CCC1)NC(=O)c1c(C)cc(Nc3cc(N)ncn3)c(=O)n12` (centres unmarked) [Compound 4ET-01-021, 6′-((6-Aminopyrimidin-4-yl)amino)-3-ethyl-8′-methyl-2′H-spiro[cyclohexane-1,3′-imidazo[1,5-a]pyridin]-2-ene-1′,5′-dione], the “Tissue Homogenate Concentration” value in data set [1] (2 hr, Brain, individual) is 17.6 ng/mL and 12.2 ng/mL. For the same compound, the “Plasma Concentration” value in data set [1] (2 hr, Plasma, individual) is 462 ng/mL and 383 ng/mL. In addition, in data set [1] (male, CD-1, mouse, 2 h post dosing, Brain, read-out: Mean tissue/plasma concentration ratio (B:P ratio)), the Kp at 2 h came to 0.142. Besides, the concentration at 2 h came out at 14.8 ng/mL in data set [1] (male, CD-1, mouse, brain homogenate, 2 h, Brain, read-out: Mean (brain homogenate)); 14.5 ng/mL in data set [1] (male, CD-1, mouse, brain homogenate, 2 hr, Brain, individual, read-out: Tissue Homogenate Concentration); 59.1 ng/g in data set [1] (male, CD-1, mouse, brain, 2 h, Brain, read-out: Mean Tissue); 416 ng/mL in data set [1] (male, CD-1, mouse, plasma, 2 h, Plasma, read-out: Mean (plasma)); 404 ng/mL in data set [1] (male, CD-1, mouse, plasma, 2 hr, Plasma, individual, read-out: Plasma Concentration). Besides, it took a dose of 0.4 mg/kg to reach the 50% effect level in the data set on IL-6 evoked grimace (Mus musculus, PO, effect size vs. dose) (ED50). Further, in the data set on IL-6 evoked grimace (PO 1 hr prior to IL-6, 4ET-01-021 10.0, 3.0 and 1.0 mg/kg, 4ET-03-052B 10.0 mg/kg), the “efficacy in the IL-6 evoked grimace test” value is on record as “efficacious”. For the same compound, in the data set on IL-6 evoked grimace (sum of grimace scores at 1 and 3 hr minus baseline), the “effect size in the IL-6 evoked grimace test” value was “statistically-significant effect sizes”.

Values taken from US20230286983A1 (4E Therapeutics, Inc., priority 2020, published 2023).
